The text below walks through data of US5854004A, “Process for screening substances capable of modulating a receptor-dependent cellular signal transmission path” (Boehringer Ingleheim GmbH, priority 1991, dated 1998).

Assay [1] relates to cell line CHO C6-13. The assay is described as follows: Luciferase expression in CRE-pretest cell line CHO C6-13. The following applies: for change in luciferase expression/activity: 3 hours treatment, FIG. 33. How it is done: The transfection by electroporation was carried out as follows: after removal of the medium the cells were detached from the surface by means of a trypsin/PBS solution, suspended in medium and pelleted for 5 minutes at 250×g. The cells were washed in HBS (10 mM HEPES pH 7.4, 150 mM NaCl) and pelleted by centrifuging. The cells were suspended in HBS in a density of 1×10^7 cells/ml. 0.8 ml of cell suspension were mixed with 20 μg of DNA of the plasmid pADneo2-C6-BGL linearised with ScaI and transferred into an electroporation dish. […] After the electroporation the cells were diluted in the medium mentioned above, 20,000 cells per 90 mm culture dish was sown and incubated overnight at 37° C.
Two batches of each were treated with 20 μM forskolin and incubated for a further 5 hours at 37° C. Then the medium was removed from all the cells and the cells were washed with PBS.
Cells of the cell line CHO C6-13 were treated for 3 hours with various substances which alter the intracellular concentration of cAMP or IP3 /DAG or simulate a change in concentration, and also treated with receptor-specific agonists which influence the above-mentioned signal transduction mechanisms.

The target of assay [2] is luciferase (Photinus pyralis, UniProt P08659). The assay is described as follows: Effect of reagent component concentration on luciferase measuring signal. The format is biochemical. How it is done:
The effect of varying the concentration of ATP, luciferin, MgSO4. 7H2 O, dithiothreitol (DDT), β-mercaptoethanol (BME), sodium tripolyphosphate (NaTPP), Triton X-100 and the pH on the luciferase measuring signal obtained was determined (Table 2). The measurements obtained 3 minutes after the addition of the reagent were used for comparison (given as percentage of the maximum measuring signal obtained).

Sequence of luciferase (P08659 whole entry): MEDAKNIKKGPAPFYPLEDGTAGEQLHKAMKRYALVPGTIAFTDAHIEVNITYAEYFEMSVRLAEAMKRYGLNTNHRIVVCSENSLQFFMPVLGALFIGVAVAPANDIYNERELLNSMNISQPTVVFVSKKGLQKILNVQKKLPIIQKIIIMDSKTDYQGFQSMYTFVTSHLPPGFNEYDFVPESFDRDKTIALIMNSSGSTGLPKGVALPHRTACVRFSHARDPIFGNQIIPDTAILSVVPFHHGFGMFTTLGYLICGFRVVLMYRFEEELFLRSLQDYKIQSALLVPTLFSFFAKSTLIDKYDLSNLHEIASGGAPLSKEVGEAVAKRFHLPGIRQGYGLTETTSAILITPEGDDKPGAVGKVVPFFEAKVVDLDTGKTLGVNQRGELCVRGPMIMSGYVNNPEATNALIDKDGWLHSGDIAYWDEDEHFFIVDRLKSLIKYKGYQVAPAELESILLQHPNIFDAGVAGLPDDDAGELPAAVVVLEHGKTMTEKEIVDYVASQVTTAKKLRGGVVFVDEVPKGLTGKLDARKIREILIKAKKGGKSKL

Take `CNc1ccc2oc(C[C@H]3O[C@@]4(CC[C@H]3C)O[C@H]([C@H](C)C(=O)c3ccc[nH]3)[C@H](C)C[C@H]4C)nc2c1C(=O)O` [A23187]: the “change in luciferase expression/activity” value in assay [1] was “did not bring about any significant change in the luciferase activity”.

For the molecule `Nc1ncnc2c1ncn2[C@@H]1O[C@H](COP(=O)(O)OP(=O)(O)OP(=O)(O)O)[C@@H](O)[C@H]1O` [ATP, adenosine triphosphate], the “% max. signal (luciferase)” value in assay [2] (ATP 0.06 g/l) is 61%; in assay [2] (ATP 0.13 g/l), 95%; in assay [2] (ATP 0.29 g/l), 100%; in assay [2] (ATP 0.65 g/l), 98%; in assay [2] (ATP 1.47 g/l), 83%; in assay [2] (ATP 3.30 g/l) it was 78%.

For `OCCS` [BME, β-mercaptoethanol], the “max. signal (luciferase)” value turned out to be 80% in assay [2] (BME 0.59 ml/l); 82% in assay [2] (BME 0.88 ml/l); 68% in assay [2] (BME 1.32 ml/l); 84% in assay [2] (BME 1.98 ml/l); 86% in assay [2] (BME 2.96 ml/l); 100% in assay [2] (BME 4.44 ml/l). The “max. signal (luciferase)” value amounted to 94% in assay [2] (BME 6.67 ml/l) and 93% in assay [2] (BME 10.0 ml/l).

`CC(C)Cn1c(=O)n(C)c(=O)c2[nH]cnc21` [IBMX, isobutylmethylxanthine]: the “change in luciferase expression/activity” value in assay [1] was “increased”. The “shift in the forskolin dosage-activity curve to lower forskolin concentrations” value in assay [1] (with IBMX) is “one order of magnitude”. Besides, the “influence on maximum induction of the luciferase reporter gene” value in assay [1] (with forskolin) is “not significantly influenced”.

`O=C(O)[C@H]1CSC(c2nc3ccc(O)cc3s2)=N1` [Lucifenn]: the “% max. signal (luciferase)” value in assay [2] (luciferin 1.32 mg/l) is reported as 42%; in assay [2] (luciferin 1.98 mg/l), 58%; in assay [2] (luciferin 2.96 mg/l), 65%; in assay [2] (luciferin 4.44 mg/l), 75%; in assay [2] (luciferin 6.67 mg/l) it was 88%; in assay [2] (luciferin 10.0 mg/l), 95%. Further, the “% max. signal (luciferase)” value in assay [2] (luciferin 15.0 mg/l) stood at 100%.

As for `O.O.O.O.O.O.O.O=S(=O)([O-])[O-].[Mg+2]` [MgSO4, magnesium sulphate-heptahydrate], the “% max. signal (luciferase)” value is given as 20% in assay [2] (MgSO4 0.35 g/l); 48% in assay [2] (MgSO4 0.53 g/l); 64% in assay [2] (MgSO4 0.79 g/l); 77% in assay [2] (MgSO4 1.19 g/l); 77% in assay [2] (MgSO4 1.78 g/l); 100% in assay [2] (MgSO4 2.67 g/l). Moreover, the “% max. signal (luciferase)” value in assay [2] (MgSO4 4.00 g/l) is 100%.

On to `O=P(O)(O)OP(=O)(O)OP(=O)(O)O` [NaTPP, sodium tripolyphosphate], for which the “% max. signal (luciferase)” value turned out to be 54% in assay [2] (NaTPP 5.01 mg/l); 64% in assay [2] (NaTPP 15.8 mg/l); 82% in assay [2] (NaTPP 50.0 mg/l); 100% in assay [2] (NaTPP 158 mg/l); 75% in assay [2] (NaTPP 500 mg/l).

Turning to `C[N+](C)(C)CCOC(N)=O` [carbachol], the “change in luciferase expression/activity” value in assay [1] was “did not bring about any significant change in the luciferase activity”.

Regarding `CCCC(=O)Nc1ncnc2c1ncn2[C@@H]1O[C@@H]2COP(=O)(O)O[C@H]2[C@H]1OC(=O)CCC` [dibutyryl-cAMP], in assay [1], the “change in luciferase expression/activity” value is on record as “increased”.
